Laboratory results from patent US11149062B2, “HDAC inhibitors and methods of treatment using the same” (UWM Research Foundation, Inc., priority 2015, dated 2021).
pIC50: −log10 of the molar value. “Also recorded” adds a separate entry of the source. Like-named read-outs stand apart in the source and are kept apart here.

Assays:
Recombinant human HDAC1 = target: T1, Recombinant human HDAC1 (Homo sapiens, UniProt Q13547); assay: HDAC-Glo I/II assay, HDAC1; format: biochemical; conditions: for Class I selectivity Ratio HDAC 1/HDAC8: ratio of IC50 values
T1 construct: purchased BPS Bioscience Inc
T1 sequence (Q13547 whole entry): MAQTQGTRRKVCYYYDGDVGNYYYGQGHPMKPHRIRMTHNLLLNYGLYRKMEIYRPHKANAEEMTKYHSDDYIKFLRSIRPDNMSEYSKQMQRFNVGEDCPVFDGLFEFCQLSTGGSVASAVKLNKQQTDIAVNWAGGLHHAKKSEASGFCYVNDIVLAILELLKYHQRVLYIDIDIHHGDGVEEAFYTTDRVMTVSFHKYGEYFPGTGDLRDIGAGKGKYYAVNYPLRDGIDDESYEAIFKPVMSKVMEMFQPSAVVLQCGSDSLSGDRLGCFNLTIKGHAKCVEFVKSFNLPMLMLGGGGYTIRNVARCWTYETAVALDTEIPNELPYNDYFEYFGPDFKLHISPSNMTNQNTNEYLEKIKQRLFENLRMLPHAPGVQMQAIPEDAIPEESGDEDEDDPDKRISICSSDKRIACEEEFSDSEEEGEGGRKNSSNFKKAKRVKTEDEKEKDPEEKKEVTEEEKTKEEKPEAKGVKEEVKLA
Procedure: (§1) The purified compounds of all fragments and natural product derivatives were evaluated for inhibitory effects on three different classes of HDAC proteins (class I, IIa, and IIb). […] All activity was determined by using a fluorescence-based in vitro assay. Class I HDAC proteins that were evaluated were HDAC1, HDAC2, HDAC3, HDAC8, HDAC4, and HDAC6. Class IIa HDAC protein were HDAC4 and the Class IIb HDAC protein were HDAC6.
(§2) HDAC-Glo™ I/II Assay and Screening System (Promega) was used to determine the HDAC inhibitory activity. Recombinant human HDAC1, HDAC2, HDAC3, HDAC4, HDAC6 and HDAC8 were purchased from BPS Bioscience Inc. The inhibitory activities of the test compounds against recombinant HDAC were performed according to reagent suppliers' protocols.
(§3) All test compounds were firstly dissolved in DMSO to make 10 mM stock solution. A certain amount of stock solution was diluted to 1 mM by DMSO and then reduced by tris(2-carboxyethyl)phosphine hydrochloride (TCEP) in a molar ration of 1:1.5 for 20 min at ambient temperature prior to being assayed. After reduction, a series of fivefold dilutions of each reduced compound were prepared with HDAC-Glo buffer and 25 μL of each dilution was added into a well on a 96-well plate. HDAC enzymes were diluted to the desired concentrations with HDAC-Glo buffer and 25 μL of each diluted enzyme was dispensed into a well to mix with 25 μL of testing compound at room temperature for 30-60 seconds. After the reaction mixture had been incubated at room temperature for 1 hour, 50 μL of HDAC-Glo reagent was added to each reaction well and mixed up for 30-60 seconds. Finally, the plate was incubated at room temperature for an additional 30 minutes before the luminescence was measured on a Synergy HT plate reader (Bio-Tek). The luminescence intensity data were analyzed using GraphPad Prism 5 (GraphPad Software). In the absence of any test compound, the luminescence intensity (I100) in each data set was defined as 100% activity. In the absence of both of HDAC enzymes and test compound, the luminescence intensity (I0) in each data set was defined as 0% activity. The relative activity (%) in the presence of each compound was calculated according to the following equation: % activity=(I−I0)/(I100−I0), where I=the luminescence intensity if a compound is present in the reaction. Experiments were performed in triplicate and the calculated mean values were used for plotting.

Recombinant human HDAC2 = target: T2, Recombinant human HDAC2 (Homo sapiens, UniProt Q92769); assay: HDAC-Glo I/II assay, HDAC2; format: biochemical; conditions: Class I HDAC; compounds reduced by TCEP prior to assay
T2 construct: purchased BPS Bioscience Inc
T2 sequence (Q92769 whole entry): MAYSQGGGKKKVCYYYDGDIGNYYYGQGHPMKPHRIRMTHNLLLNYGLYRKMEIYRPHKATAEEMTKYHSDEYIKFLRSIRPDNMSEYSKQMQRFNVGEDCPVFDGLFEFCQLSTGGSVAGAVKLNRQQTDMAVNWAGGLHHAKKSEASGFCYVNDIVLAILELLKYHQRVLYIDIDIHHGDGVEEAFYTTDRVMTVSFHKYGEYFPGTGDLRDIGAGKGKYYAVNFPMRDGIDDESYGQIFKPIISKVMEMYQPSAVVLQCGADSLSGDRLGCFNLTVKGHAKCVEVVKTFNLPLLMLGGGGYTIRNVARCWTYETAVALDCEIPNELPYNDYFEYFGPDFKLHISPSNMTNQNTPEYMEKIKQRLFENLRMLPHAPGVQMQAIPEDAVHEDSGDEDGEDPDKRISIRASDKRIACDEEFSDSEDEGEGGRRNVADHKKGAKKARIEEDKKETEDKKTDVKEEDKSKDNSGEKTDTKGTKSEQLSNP
Procedure: as §1, §2, §3

Recombinant human HDAC3 = target: T3, Recombinant human HDAC3 (Homo sapiens, UniProt O15379); assay: HDAC-Glo I/II assay, HDAC3; format: biochemical; conditions: Class I HDAC; compounds reduced by TCEP prior to assay
T3 construct: purchased BPS Bioscience Inc
T3 sequence (O15379 whole entry): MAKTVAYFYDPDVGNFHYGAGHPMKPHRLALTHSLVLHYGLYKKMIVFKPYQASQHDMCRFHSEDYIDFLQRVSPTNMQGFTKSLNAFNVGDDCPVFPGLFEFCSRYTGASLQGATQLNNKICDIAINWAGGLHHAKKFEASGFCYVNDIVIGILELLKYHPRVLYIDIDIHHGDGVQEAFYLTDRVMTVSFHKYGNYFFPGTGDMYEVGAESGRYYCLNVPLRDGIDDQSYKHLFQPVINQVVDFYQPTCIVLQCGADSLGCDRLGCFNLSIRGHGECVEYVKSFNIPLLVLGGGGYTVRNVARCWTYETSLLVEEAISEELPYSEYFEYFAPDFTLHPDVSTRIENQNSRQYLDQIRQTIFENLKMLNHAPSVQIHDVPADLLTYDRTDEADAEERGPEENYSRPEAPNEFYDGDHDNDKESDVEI
T3 sequence (Q9Y618 395-489 partner limits assumed): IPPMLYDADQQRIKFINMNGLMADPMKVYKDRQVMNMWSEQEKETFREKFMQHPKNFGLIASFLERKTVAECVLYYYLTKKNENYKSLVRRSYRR
Procedure: as §1, §2, §3

Recombinant human HDAC8 = target: T4, Recombinant human HDAC8 (Homo sapiens, UniProt Q9BY41); assay: HDAC-Glo I/II assay, HDAC8; format: biochemical; conditions: Class I HDAC; compounds reduced by TCEP prior to assay
T4 construct: purchased BPS Bioscience Inc
T4 sequence (Q9BY41 1-377): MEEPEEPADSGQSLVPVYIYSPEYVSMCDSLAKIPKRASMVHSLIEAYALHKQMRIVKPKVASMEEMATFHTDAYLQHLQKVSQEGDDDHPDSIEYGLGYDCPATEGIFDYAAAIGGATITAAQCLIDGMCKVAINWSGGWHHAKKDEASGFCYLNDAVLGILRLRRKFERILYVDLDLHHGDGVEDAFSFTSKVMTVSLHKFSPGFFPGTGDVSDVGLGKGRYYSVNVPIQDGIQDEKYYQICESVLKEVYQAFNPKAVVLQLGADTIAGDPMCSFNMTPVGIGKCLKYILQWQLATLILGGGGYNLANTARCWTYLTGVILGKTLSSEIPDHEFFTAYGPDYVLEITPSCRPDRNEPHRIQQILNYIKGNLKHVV
Procedure: as §1, §2, §3

Recombinant human HDAC4 = target: T5, Recombinant human HDAC4 (Homo sapiens, UniProt P56524); assay: HDAC-Glo I/II assay, HDAC4; format: biochemical
T5 construct: purchased BPS Bioscience Inc
T5 sequence (P56524 whole entry): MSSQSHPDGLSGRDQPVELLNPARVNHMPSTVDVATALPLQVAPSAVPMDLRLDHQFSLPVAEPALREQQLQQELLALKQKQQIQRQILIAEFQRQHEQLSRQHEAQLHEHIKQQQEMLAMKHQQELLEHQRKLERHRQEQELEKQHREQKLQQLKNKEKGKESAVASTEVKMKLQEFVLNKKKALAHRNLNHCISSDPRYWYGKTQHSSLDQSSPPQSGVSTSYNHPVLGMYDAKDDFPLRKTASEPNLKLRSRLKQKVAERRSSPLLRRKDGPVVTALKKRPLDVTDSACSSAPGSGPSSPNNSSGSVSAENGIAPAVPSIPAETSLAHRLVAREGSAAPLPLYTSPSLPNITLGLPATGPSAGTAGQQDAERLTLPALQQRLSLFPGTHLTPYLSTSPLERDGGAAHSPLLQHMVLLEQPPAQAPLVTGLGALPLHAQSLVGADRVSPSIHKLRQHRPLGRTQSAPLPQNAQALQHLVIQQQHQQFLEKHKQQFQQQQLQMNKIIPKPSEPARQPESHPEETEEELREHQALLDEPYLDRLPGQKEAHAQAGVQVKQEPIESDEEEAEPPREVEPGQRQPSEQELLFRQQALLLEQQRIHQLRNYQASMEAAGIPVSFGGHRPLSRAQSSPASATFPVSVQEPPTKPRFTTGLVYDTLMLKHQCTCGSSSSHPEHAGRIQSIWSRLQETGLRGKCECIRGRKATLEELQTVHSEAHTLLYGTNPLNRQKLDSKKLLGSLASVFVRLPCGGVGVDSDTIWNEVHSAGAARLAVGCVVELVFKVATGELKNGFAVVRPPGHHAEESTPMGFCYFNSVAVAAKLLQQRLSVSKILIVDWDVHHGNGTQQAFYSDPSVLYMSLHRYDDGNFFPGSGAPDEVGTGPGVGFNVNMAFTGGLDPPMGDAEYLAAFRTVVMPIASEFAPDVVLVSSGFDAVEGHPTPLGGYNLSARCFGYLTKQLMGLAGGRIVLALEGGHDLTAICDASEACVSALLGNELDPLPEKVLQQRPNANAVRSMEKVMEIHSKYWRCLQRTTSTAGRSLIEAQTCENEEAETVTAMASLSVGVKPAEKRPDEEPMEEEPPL
Procedure: as §1, §2, §3

HCT-116 (colon cancer) = assay: MTT antiproliferative assay, HCT-116; format: cell-based; conditions: Homo sapiens, read-out: Antiproliferative Activity GI50, Colon HCT-116
Procedure: (§4) Briefly, the tumor cells (1×10^4 cells/well) were seeded in 96-well microtiter plates and incubated for 24 h at 37° C. Following incubation, the media was replaced with fresh media containing the above compounds at concentrations ranging from 1 μM to 1 pM diluted in DMSO and incubated for an additional 48 h. Drugs were run in duplicate or triplicate and control cells received fresh media with DMSO concentration equivalent to the treatment groups. […] After aspirating the culture medium, 200 μL of DMSO was added to dissolve the precipitate and the resulting solution was measured for absorbance at 570 nm with a reference wavelength of 690 nm using a microplate reader (Infinite M200 Pro TECAN).

HeLa (cervical cancer) = assay: MTT antiproliferative assay, HeLa; format: cell-based; conditions: Homo sapiens, 48 h, read-out: Antiproliferative Activity GI50, Cervical HeLa
Procedure: as §4

RFX393 (renal) = assay: MTT antiproliferative assay, RFX393; format: cell-based; conditions: 48 h, read-out: Antiproliferative Activity GI50, Renal RFX393
Procedure: as §4

SKOV-3 (ovarian) = assay: MTT antiproliferative assay, SKOV-3; format: cell-based; conditions: Homo sapiens, SK-OV-3; MTT, 48 h; read-out: Antiproliferative Activity GI50, Ovarian SKOV-3
Procedure: as §4

DU-145 (prostate cancer) = assay: MTT antiproliferative assay, DU-145; format: cell-based; conditions: Homo sapiens, DU-145; MTT, 48 h; read-out: Antiproliferative Activity GI50, Prostate DU-145
Procedure: as §4

[1] = test system: MDA-MB-231 (breast cancer); assay: MTT antiproliferative assay, MDA-MB-231; format: cell-based; conditions: Homo sapiens, MDA-MB-231; MTT, 48 h; read-out: Antiproliferative Activity GI50, Breast MDA-MB-231
Procedure: as §4

COLO-205 (colon cancer) = assay: MTT antiproliferative assay, COLO-205; format: cell-based; conditions: Homo sapiens, COLO 205; MTT, 48 h; read-out: Antiproliferative Activity GI50, Colon COLO-205
Procedure: as §4

in vivo = conditions: BALB/c, mouse, in vivo, ip
Text: (§5) BALB/c mice were purchased from The Jackson Laboratory (Bar Harbor, Me.) and used between 7 and 10 weeks of age. Mice were housed in a conventional animal vivarium and were given free access to food and water. All studies and procedures were approved by the Animal Care and Use Committee of the University of Wisconsin, Milwaukee.
(§6) Each animal was initially weighed using a digital scale and then intraperitoneally (IP) injected with the compounds (listed in Table 2). A single mouse was given a single IP dose of 200 mg/kg, body weight, a second mouse received a dose of 100 mg/kg and a third mouse received a single dose of 50 mg/kg. The mice were observed and weighed every other day for a period of 2 weeks. They were euthanized if they lost more than 20% of their body weight or if there were other signs of significant toxicity. […] This process was repeated until a tolerated dose was found, and the MTD value was determined.
(§7) To determine the MTD in vivo, the compounds listed above were injected intraperitoneally into BALB/c mice and morbidity and mortality were monitored over two weeks.

BALB/c mice = assay: in vivo
Text: as §5, §6, §7

[2] = test system: colon (HCT-116), cervical (HeLa), and renal (RFX393) tumor cell lines; assay: MTT antiproliferative assay, all three tumor cell lines; format: cell-based; conditions: HCT-116, HeLa, RFX393; summary of Table 3; read-out: GI50 values against all three tumor cell lines
Procedure: as §4

[3] = 10 mg/mL cpd in 20% DMSO/saline
class I HDACs = assay: HDAC-Glo I/II assay, class I HDACs; format: biochemical, human; conditions: methyl esters compared with TDF4, TDF5, TDF6
Procedure: The purified compounds of all fragments and natural product derivatives were evaluated for inhibitory effects on three different classes of HDAC proteins (class I, IIa, and IIb). The natural products FK228, SAHA, TDP-A, and TDP-B were used as a positive control. All activity was determined by using a fluorescence-based in vitro assay. Class I HDAC proteins that were evaluated were HDAC1, HDAC2, HDAC3, HDAC8, HDAC4, and HDAC6. Class IIa HDAC protein were HDAC4 and the Class IIb HDAC protein were HDAC6.
as §2
as §3, with “After reduction, a series of fivefold dilutions of each reduced compound were prepared with HDAC-Glo buffer and 25 μL of each dilution was added into a well on a 96-well plate. HDAC enzymes were diluted to the desired concentrations with HDAC-Glo buffer and 25 μL of each diluted enzyme was dispensed into a well to mix with 25 μL of testing compound at room temperature for 30-60 seconds. After the reaction mixture had been incubated at room temperature for 1 hour, 50 μL of HDAC-Glo reagent was added to each reaction well and mixed up for 30-60 seconds.” left out

adult mice = conditions: cited from earlier work
histones H3 and H4 = conditions: 30 min time point; cited from earlier work
[4] = Class I HDAC, compounds reduced by TCEP prior to assay, read-out: IC50 of HDAC1
[5] = Class IIa HDAC, compounds reduced by TCEP prior to assay, read-out: IC50 of HDAC4

## CCCC[C@H](NC(=O)CC(O)/C=C/CCS)C(=O)O (some centres unmarked) [TDF5]
Recombinant human HDAC1; [4]
  pIC50: 8.59
Recombinant human HDAC1
  Class I selectivity Ratio HDAC 1/HDAC8: 0.00002
Recombinant human HDAC2
  pIC50: 7.34
Recombinant human HDAC3
  pIC50: 6.08
Recombinant human HDAC8
  pIC50: 4.31
Recombinant human HDAC4; [5]
  pIC50: < 3.00
HCT-116 (colon cancer); HCT-116, MTT, 48 h
  GI50: 0.4 µM
HeLa (cervical cancer); MTT
  GI50: 0.4 µM
RFX393 (renal); MTT
  GI50: 0.5 µM
SKOV-3 (ovarian)
  GI50: 0.7 µM
DU-145 (prostate cancer)
  GI50: 0.6 µM
[1]
  GI50: 0.5 µM
COLO-205 (colon cancer)
  GI50: 0.9 µM
In vivo
  MTD at 2 weeks: > 200 mg/kg
BALB/c mice; BALB/c, mouse, in vivo, ip, 2 weeks
  MTD (toxicity in healthy BALB/c mice): >200 mg/kg
[2]
  GI50: 0.5 µM
[3]
  Solubility: Mostly soluble

## CCCC[C@H](NC(=O)CC(O)/C=C/CCS)C(=O)OC (some centres unmarked) [TDF5m]
Recombinant human HDAC1; [4]
  pIC50: 7.58
Recombinant human HDAC1
  Class I selectivity Ratio HDAC 1/HDAC8: 0.00159
Recombinant human HDAC2
  pIC50: 5.78
Recombinant human HDAC3
  pIC50: 6.91
Recombinant human HDAC8
  pIC50: 3.88
Recombinant human HDAC4; [5]
  pIC50: < 3.00
HCT-116 (colon cancer); HCT-116, MTT, 48 h
  GI50: 32.6 µM
HeLa (cervical cancer); MTT
  GI50: 30.2 µM
RFX393 (renal); MTT
  GI50: 40.1 µM
In vivo
  MTD at 2 weeks: > 200 mg/kg
Class I HDACs
  fold less active toward all class I HDACs: about 10 fold
[3]
  Solubility: Soluble

## CCC(C)C(NC(=O)CC(O)/C=C/CCS)C(=O)OC (centres unmarked) [TDF4m]
Recombinant human HDAC1; [4]
  pIC50: 7.52
Recombinant human HDAC1
  Class I selectivity Ratio HDAC 1/HDAC8: 0.00061
Recombinant human HDAC2
  pIC50: 5.67
Recombinant human HDAC3
  pIC50: 7.01
Recombinant human HDAC8
  pIC50: 3.93
Recombinant human HDAC4; [5]
  pIC50: < 3.00
HCT-116 (colon cancer); HCT-116, MTT, 48 h
  GI50: 31 µM
HeLa (cervical cancer); MTT
  GI50: 20.1 µM
RFX393 (renal); MTT
  GI50: 32.1 µM
In vivo
  MTD at 2 weeks: > 200 mg/kg
Class I HDACs
  fold less active toward all class I HDACs: about 10 fold
[3]
  Solubility: Soluble

## COC(=O)[C@@H](NC(=O)CC(O)/C=C/CCS)C(C)C (some centres unmarked) [TDF6m]
Recombinant human HDAC1; [4]
  pIC50: 7.52
Recombinant human HDAC2
  pIC50: 5.71
Recombinant human HDAC3
  pIC50: 7.00
Recombinant human HDAC8
  pIC50: 4.00
Recombinant human HDAC4; [5]
  pIC50: < 3.00
HCT-116 (colon cancer); HCT-116, MTT, 48 h
  GI50: 28.4 µM
HeLa (cervical cancer); MTT
  GI50: 25.6 µM
RFX393 (renal); MTT
  GI50: 31.7 µM
In vivo
  MTD at 2 weeks: > 200 mg/kg
Class I HDACs
  fold less active toward all class I HDACs: about 10 fold
[3]
  Solubility: Soluble

## C/C=C1\NC(=O)[C@H]2CSSCC/C=C/[C@H](CC(=O)N[C@H](C(C)C)C(=O)N2)OC(=O)[C@H](C(C)C)NC1=O [FK228, romidepsin, reference compound]
Recombinant human HDAC1
  pIC50: 8.42
Recombinant human HDAC4
  pIC50: 5.63
HCT-116 (colon cancer); HCT-116, 48 h
  GI50: 0.0012 µM
HeLa (cervical cancer)
  GI50: 0.0013 µM
RFX393 (renal)
  GI50: 0.0012 µM
In vivo; MTD (toxicity in healthy BALB/c mice), single IP dose, observed 2 weeks
  MTD at 2 weeks: 3.25 mg/kg
BALB/c mice; single IP dose, observed 2 weeks
  MTD (toxicity in healthy BALB/c mice): 3.125 mg/kg

## CC(/C=C/C(=O)NO)=C\[C@@H](C)C(=O)c1ccc(N(C)C)cc1 [TSA, trichostatin-A]
Adult mice; single treatment immediately after training, 16.5 mM, chance 15 s
  object recognition memory 48 h after training: completely intact object recognition memory; also recorded: spent more time than chance
Adult mice; treatment delayed for 3 h after training
  object recognition memory, treatment delayed 3 h after training: did not enhance memory
Histones H3 and H4
  acetylation of histones H3 and H4 in dorsal hippocampus: increases the acetylation of histones H3 and H4
